Tests used:
[1] = Highest frequency of moderate liver toxicity observed during clinical trials, expressed as a percentage. [column '% BIOL' in source]; details: human
[2] = Highest frequency of acute liver toxicity observed during clinical trials, expressed as a percentage. [column '% AIGUE' in source]; details: human
[3] = Comments (NB not yet translated). [column 'COMMENTAIRES' in source]; details: human
[4] = Times to onset, minimal and maximal, observed in the indexed observations. [column 'DELAI' in source]; details: human
[5] = human, serum
[6] = human, serum; remark: listed apart in the source
[7] = human
[8] = human; remark: listed apart in the source
[9] = human; remark: listed apart in the source
[10] = human, serum, 4383 h
[11] = human; remark: listed apart in the source
[12] = human; remark: listed apart in the source
[13] = human; remark: listed apart in the source
[14] = human; remark: listed apart in the source
[15] = human; remark: listed apart in the source
[16] = human; remark: listed apart in the source
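Wherever Hepatotoxicity (association with vascular disease) is given: count of indexed literature references reporting vascular liver injury in humans, e.g. peliosis hepatitis, hepatic veno-occlusive disease or Budd-Chiari syndrome.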
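Wherever Hepatotoxicity (benign tumour) is given: value is a count of indexed literature references citing a benign tumour confirmed by histopathology.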
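Wherever Hepatotoxicity (choleostasis) is given: human cholestatic liver injury, shown by histopathology or by peak ALT or AST elevation over alkaline phosphatase ratio below 2, value counts indexed literature reports.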
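Wherever Hepatotoxicity (chronic liver disease) is given: chronic liver injury confirmed by histopathology or persistently raised serum aminotransferase activity beyond 6 months, value given as the count of indexed literature references.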
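Wherever Hepatotoxicity (cirrhosis) is given: value is a count of indexed literature references reporting cirrhosis confirmed by histopathology.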
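Wherever Hepatotoxicity (cytolytic) is given: human cytolytic liver injury, shown by histopathology or by a ratio above 5 of peak ALT or AST elevation to alkaline phosphatase elevation, value counts indexed references.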
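Wherever Hepatotoxicity (granulomatous hepatitis) is given: value is a count of indexed literature references reporting granulomatous liver disease confirmed by histopathology.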
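Wherever Hepatotoxicity (malignant tumour) is given: malignant tumour confirmed by histopathology, value gives the count of indexed literature references reporting it.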
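Wherever Hepatotoxicity (severe hepatitis) is given: human clinical data: severe hepatitis, meaning potentially life-threatening liver failure or clinically observed cases, the value counts how many indexed literature references report it.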
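Wherever Hepatotoxicity (steatosis) is given: steatosis confirmed by histopathology, value is the count of indexed references.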

Row | Structure (SMILES) | Hepatotoxicity (moderate) [1] | Hepatotoxicity (acute) [2] | Hepatotoxicity (comment) [3] | Hepatotoxicity (time to onset) [4] | Hepatotoxicity (moderate) [5] | Hepatotoxicity (acute) [6] | Hepatotoxicity (cytolytic) [7] | Hepatotoxicity (choleostasis) [8] | Hepatotoxicity (severe hepatitis) [9] | Hepatotoxicity (chronic liver disease) [10] | Hepatotoxicity (cirrhosis) [11] | Hepatotoxicity (granulomatous hepatitis) [12] | Hepatotoxicity (association with vascular disease) [13] | Hepatotoxicity (steatosis) [14] | Hepatotoxicity (malignant tumour) [15] | Hepatotoxicity (benign tumour) [16]
1 | C1CCC(C(CC2CCCCN2)C2CCCCC2)CC1 (stereo not drawn) [PERHEXILINE] | 30% | 0% | I/AMIODARONE/BEZAFIBRATE/PAROXETINE INCLUSIONLAMELLAIRE | 3 weeks - 12 years | 18 | 11 | 9 | 2 | 5 | 1 | 22 | 1 | 0 | 10 | 0 | 0
2 | CC(Cc1ccccc1)NN (stereo not drawn) [PHENIPRAZINE] | 0% | 0% | RC/NIALAMIDE/IPRONIAZIDE | 2 weeks - 7 months | 0 | 7 | 7 | 0 | 5 | 0 | 0 | 0 | 0 | 0 | 0 | 0
3 | CCc1ccc(CCOc2ccc(CC3SC(=O)NC3=O)cc2)nc1 (stereo not drawn) [PIOGLITAZONE] | 0.4% | 0% | CHOLESTASE_PROLONGEE PERICHOLANGIOLITE CHOLANGIOLITE | 23 days - 7 months | 3 | 5 | 3 | 3 | 1 | 0 | 0 | 0 | 0 | 0 | 0 | 0
4 | C[C@]12C=CC(=O)C=C1CC[C@@H]1[C@@H]2[C@@H](O)C[C@@]2(C)[C@H]1CC[C@]2(O)C(=O)CO [PREDNISOLONE] | 0% | 0% | AGGRAVATION_ANGIOMES | 6 days - 8 years | 0 | 2 | 2 | 0 | 2 | 0 | 0 | 0 | 0 | 2 | 0 | 1
5 | CN1CCN(CCCN2c3ccccc3Sc3ccc(Cl)cc32)CC1 [PROCHLORPERAZINE] | 0% | 0% | I/IPRONIAZIDE CHOLESTASE_PROLONGEE DUCTOPENIE | 1 week - 4 months | 0 | 9 | 3 | 6 | 3 | 3 | 0 | 0 | 0 | 0 | 0 | 0
6 | CC(=O)[C@H]1CC[C@H]2[C@@H]3CCC4=CC(=O)CC[C@]4(C)[C@H]3CC[C@]12C [PROGESTERONE] | 13.3% | 0% | HNF | 1 week - 40 weeks | 2 | 3 | 2 | 1 | 0 | 0 | 0 | 0 | 0 | 0 | 0 | 1
7 | O=C(c1ccc(OCCN2CCCCC2)cc1)c1c(-c2ccc(O)cc2)sc2cc(O)ccc12 [RALOXIFENE] | 16.7% | 0% | CHOLESTASE_PROLONGEE | 30 days | 1 | 1 | 0 | 1 | 0 | 0 | 0 | 0 | 0 | 0 | 0 | 0
8 | Cc1nc2n(c(=O)c1CCN1CCC(c3noc4cc(F)ccc34)CC1)CCCC2 [RISPERIDONE] | 6% | 4% | PERICHOLANGITE HYPERBILIRUBINEMIE | 2 days - 1 year | 4 | 6 | 5 | 2 | 0 | 0 | 0 | 0 | 0 | 4 | 0 | 0
9 | C#CCN(C)[C@H](C)Cc1ccccc1 [SELEGILINE] | 4% | 0% | CHOLESTASE_PROLONGEE | 3 months | 2 | 1 | 0 | 1 | 0 | 0 | 0 | 0 | 0 | 0 | 0 | 0
10 | C[C@]12Cc3c[nH]nc3C[C@@H]1CC[C@@H]1[C@@H]2CC[C@@]2(C)[C@H]1CC[C@]2(C)O [STANOZOLOL] | 26.1% | 0% | ANGIOSARCOME HNF | 1 month - 20 years | 6 | 6 | 2 | 4 | 1 | 0 | 0 | 0 | 0 | 0 | 2 | 3
11 | CCN1CCCC1CNC(=O)c1cc(S(N)(=O)=O)ccc1OC (stereo not drawn) [SULPIRIDE] | 4% | 0% | DUCTOPENIE | 1 week - 3 months | 3 | 3 | 0 | 1 | 1 | 0 | 0 | 0 | 0 | 0 | 0 | 0
12 | Cc1ccc(C(=O)Nc2ccc(S(=O)(=O)O)c3cc(S(=O)(=O)O)cc(S(=O)(=O)O)c23)cc1NC(=O)c1cccc(NC(=O)Nc2cccc(C(=O)Nc3cc(C(=O)Nc4ccc(S(=O)(=O)O)c5cc(S(=O)(=O)O)cc(S(=O)(=O)O)c45)ccc3C)c2)c1 [SURAMIN] | 63% | 6.3% | REACTIVATION_HVB | 1 week - 8 months | 11 | 3 | 1 | 0 | 1 | 0 | 0 | 0 | 0 | 0 | 0 | 0
13 | CC(C)(C)NCC(O)c1cc(O)cc(O)c1 (stereo not drawn) [TERBUTALINE] | 0% | 0% | VOIR_BAMBUTEROL | 4 weeks - 8 weeks | 0 | 2 | 2 | 0 | 0 | 0 | 0 | 0 | 0 | 0 | 0 | 0
